Results from patent US11696924B2, “Combination therapy using PDK1 and PI3K inhibitors” (MEMORIAL SLOAN-KETTERING CANCER CENTER, priority 2015, dated 2023).
Entries after “also recorded” stand apart in the source; their conditions may differ.

How the values were obtained:
[1] = system: pNDRG1 (T346); assay: Western blot of NDRG1 phosphorylation (T346); type: cell-based; conditions: 4 h
Experimental: A) SGK1 mRNA levels in breast cancer cell lines sensitive or resistant to BYL719 (n=27). B) SGK1 mRNA levels in PIK3CA-mutant breast cancer cell lines sensitive or resistant to BYL719. C) Western blot of SGK1, SGK2, SGK3 and phosphorylated NDRG1 in a panel of PIK3CA—mutant breast cancer cell lines sensitive or resistant to BYL719. D) Western blot for NDRG1 and phosphorylated NDRG1 (T346) in BYL719-sensitive and -resistant breast cancer cell lines treated with BYL719 (1 μM) for 4 h. […] P values are calculated using Student's t-test. Error bars are ±SEM.
A) Dose-response curves from MDA-MB-361 cells transduced with pLenti7.3-LacZ or pLenti7.3-SGK1 (Δ60, S422D) treated with increasing concentrations of BYL719 for 6 days. B) Western blot analysis of LacZ and SGK1 MDA-MB-361 cells treated with BYL719 (1 μM) for 4 h. […] The DFG motif amino acids are indicated (D240, F241, G242). […] Hydrogen bonds are shown as dotted lines. […] L) IHC analysis of tumors from K collected at the end of the experiment. M) Top panel: growth curves of HCC1954 cells stably expressing doxycycline-inducible control (REN) or SGK1 knockdown treated with increasing concentrations of BYL719 for 6 days. Bottom panel: Western blot analysis of GFP-sorted control (REN) and SGK1 shRNA cells treated with BYL719 (1 μM) for 4 h. P values are calculated using Student's t-test. Error bars are ±SEM.
Then, membranes were probed using specific antibodies.

[2] = system: pAKT (S473, T308); assay: Western blot of AKT phosphorylation; type: cell-based
From the text: For western blot analysis proteins were extracted in RIPA buffer supplemented with protease and phosphatase inhibitors (Roche). Protein lysates were separated using SDS-PAGE gels and transferred to a PVDF membrane. Then, membranes were probed using specific antibodies. PDK1, pAKT (S473), pAKT (T308), pS6K (T389), pS6 (S240/4), pS6 (235/6), p4EBP1 (S65), PARP, Actin, pRSK (S227), cleaved Caspase 3, pFOXO1/3 (T24/T32), SGK1, SGK2, SGK3, pNDRG1 (T346), NDRG1, Flag, HA, and phospho-RXRXX(S/T) (SEQ ID NO: 1) were from Cell Signaling Technology (CST).

[3] = system: FOXO3; assay: FOXO-dependent transcription (microarray, RT-PCR, immunofluorescence, luciferase reporter, ChIP-qPCR); type: cell-based; conditions: HCC1954 and JIMT1, 1 μM, 4 h, vs DMSO
Experimental: B) Enrichment plot for the FOXO3 signature in HCC1954 cells. C) Heat map showing changes in previously described FOXO3 targets.
G) Luciferase reporter assay in HCC1954 cells stably transduced with the FOXO consensus motif reporter construct treated as indicated for 12 h (RLU, Relative light units). H) ChIP-qPCR assay of FOXO3A binding at TNFSF10A and IRS2 promoters in HCC1954 cells treated as indicated in F. P values are calculated using Student's t-test. Error bars are ±SEM.
RNA was isolated from cells using the QIAGEN RNeasy kit. For microarray analysis, biotinylated cRNA was prepared according to the standard Illumina protocol. After fragmentation, cRNA was hybridized with Illumina GX HT12 Human Array. Slides were washed and stained in the Illumina instrument following manufactured protocol. Slides were scanned using Illumina Bead Array Reader. Data were analyzed using GenomeStudio software. No normalization and background correction are performed first, then quantile normalization and background correction are done.
For mRNA expression analysis, cDNA was prepared using the Bio-Rad cDNA synthesis kit. cDNA was amplified by quantitative PCR using SYBR Select Master Mix (Applied Biosystems) in the ViiA 7 Real-Time PCR system. All reactions were carried out in triplicate.
Lysed cells were sonicated on ice to yield 200-800 bp DNA fragments. […]

[4] = system: HCC1954 xenografts; assay: HCC1954 in vivo xenograft; parameters: species or system mice
Experimental: Animals were maintained and treated in accordance with Institutional Guidelines of Memorial Sloan Kettering Cancer Center (Protocol number 12-10-019). 5×10^6 cells in 1:1 PBS/Matrigel (Corning) were injected subcutaneously into six-week-old female athymic Foxn1^nu nude mice.
When tumors reached a volume of ˜150 mm^3 mice were randomized, treated, and tumors were measured twice a week during a month. At least 10 tumors per group were used in all the studies. […] Tumors were harvested at the end of the experiment three hours after the last dosage, fixed in 4% formaldehyde in PBS, and paraffin-embedded. […] Primary staining was followed by 60 minutes incubation with biotinylated goat anti-rabbit IgG (Vector labs) 1:200. Blocker D, Streptavidin-HRP and DAB detection kit (Ventana Medical Systems) were used according to the manufacturer instructions.

[5] = system: cap-dependent translation; assay: m7GTP pull down, cap-dependent translation; type: cell-based; conditions: HCC1954 shPDK1, BYL719 1 μM, 4 h
Experimental: 2 million cells were seeded in 10 cm plates and treated accordingly 12 hr after seeding. Lysates were prepared using m7GTP pull down buffer (50 mM Hepes, pH 7.4, 75 mM NaCl, 10 mM MgCl2, 1 mM DTT, 8 mM EGTA, 10 mM β-glycerophosphate, 0.5 mM Na3VO4, 0.5% Triton X-100) supplemented with protease and phosphatase inhibitors. Lysates were centrifuged at 13000 rpm for 10 min and supernatants were rotated for 2 h at 4° C. with 7-methyl-GTP-Sepharose or control Sepharose beads (Jena Bioscience). Beads were washed three times with m^7GTP pull down buffer, resuspended in Laemmli buffer, and associated proteins were detected by Western blot.

[6] = system: JIMT1 cells; assay: cell viability, MTT assay; type: cell-based; conditions: JIMT1 shPDK1, 6 days
Experimental: (§1) Cell viability was measures using the MTT assay. Briefly, 5000 cells were seeded in 96 well plates, treated for 6 days, and assayed using 0,25% MTT (Sigma) and 50 mM sodium succinate (Sigma) solutions during 3 h. Formazan crystals were dissolved with DMSO and absorbance was measured at 570 nm of wavelength.

[7] = system: HCC1954 cells; assay: cell viability, MTT assay; type: cell-based; conditions: HCC1954 shPDK1, 6 days
Experimental: as §1

[8] = system: SGK1; assay: kinase activity and phosphorylation of immunoprecipitated endogenous SGK1; type: cell-based; conditions: HCC1954, 4 hr, Crosstide substrate
Experimental: (§2) In vitro kinase activity of endogenous SGK1 and AKT was assayed by measuring [γ-32P] ATP incorporation into Crosstide substrate peptide [[…]] […] SGK1 and AKT were immunoprecipitated from HCC1954 cell line 4 hr after treatment. Immunoprecipitates were washed once with lysis buffer containing 500 mM NaCl, once with lysis buffer, and twice with Buffer A (50 mM Tris pH 7.5, 0.1 mM EGTA). Reactions were carried out in 40 μL total volume containing 0.1 mM [γ-32P] ATP (400-1000 cpm/pmol), 10 mM magnesium acetate, and 30 μM Crosstide peptide. Reactions were terminated by adding 10 μL […] EDTA. 40 μL of the reaction mix was spotted on P81 paper, which was immediately immersed into 50 mM ortophosphoric acid and washed several times. Papers were rinsed in acetone and air dried. Radioactivity was quantified by Cerenkov counting. One unit of enzyme activity was defined as the amount of enzyme that catalyzes incorporation of 1 nmol of [γ-32P] ATP into the substrate over one minute.

[9] = system: AKT; assay: kinase activity of immunoprecipitated endogenous AKT; type: cell-based; conditions: HCC1954, 4 hr, Crosstide substrate
Experimental: as §2

**Q.** With `Cc1nc(NC(=O)N2CCC[C@H]2C(N)=O)sc1-c1ccnc(C(C)(C)C(F)(F)F)c1` [BYL719] as the compound, how does the “NDRG1 phosphorylation (T346)” value ([1]; BYL719-resistant cell lines) read?
**A.** maintain NDRG1 phosphorylation

**Q.** And the “NDRG1 phosphorylation (T346)” value ([1]; BYL719-sensitive cell lines, 1 μM)?
**A.** decreased NDRG1 phosphorylation at T346

**Q.** And the “AKT phosphorylation / activity” value ([2]; BYL719-resistant cells (HCC1954, JIMT1), 1 μM, 4 h)?
**A.** reduced AKT phosphorylation (S473 and T308); also recorded: effectively suppressed AKT activity

**Q.** What about the “pAKT (S473) levels fully decreased” value ([2]; CAL-148 and CAL-51 cells, 1 μM, 4 h) of the same compound?
**A.** fully decreases pAKT levels

**Q.** What about the AKT phosphorylation ([2]; HCT116 PDPK1+/+ and PDPK1−/− cells) of the same compound?
**A.** decreases AKT phosphorylation

**Q.** What about the “changes in gene expression / transcriptomic profile” value [3] of the same compound?
**A.** modest

**Q.** And the “S6 phosphorylation (S240/4) and 4EBP1 (T37/46) in tumors, IHC” value ([4]; HCC1954 shGFP vs shPDK1 xenografts)?
**A.** inhibited only in shPDK1 xenografts

**Q.** And the tumor growth ([4]; HCC1954 shGFP xenografts)?
**A.** modest delay in tumor growth

**Q.** And the tumor growth ([4]; HCC1954 shPDK1 xenografts)?
**A.** durable tumor shrinkage

**Q.** And the tumor growth ([4]; HCC1954 xenografts, BYL719 25 mg/kg daily p.o., GSK2334470 100 mg/kg i.p. 3 times/week, SGK1-inh 50 mg/kg daily p.o.)?
**A.** some antitumor activity

**Q.** And the “pAKT (S473) in tumors, IHC” value ([4]; tumors collected at the end of the experiment)?
**A.** effectively suppressed AKT phosphorylation (S473); also recorded: sufficient to suppress pAKT

**Q.** What about the “cap-dependent translation in PDK1 knockdown cells” value [5] of the same compound?
**A.** decreased cap-dependent translation

**Q.** And the “cell viability in PDK1 knockdown cells” value [6]?
**A.** decrease cell viability

**Q.** What about the “cell viability in PDK1 knockdown cells” value [7] of the same compound?
**A.** decrease cell viability

**Q.** What about the “endogenous SGK1 kinase activity” value [8] of the same compound?
**A.** remains active

**Q.** What about the “endogenous AKT kinase activity” value [9] of the same compound?
**A.** completely abrogated
